According to US20060079453A1, “Hla binding peptides and their uses” (priority 2002, published 2006):
No end group written: not given here.

Key:
Assay in all cases: biochemical
Assay type in all cases: binding
[1] = biological target: HLA-DR DRB1*0101 (DR1) (Homo sapiens, UniProt P01903+P01911, A100R/D57E/F55L/F60I/F76Y/I96L/L162R/M171V/P40L/Q125E/R42F/V115G/Y59C); details: DRB1 *0101
[2] = biological target: HLA-DR DRB1*0401 (DR4) (Homo sapiens, UniProt P01903+P01911, A100K/A169T/F76Y/I96L/K127E/L162R/M171V/N62H/P40V/Q125Y/R42H/S133A/S149N/S66Y/V115G/V209L/W38E); details: DRB1 *0401
[3] = biological target: HLA-DR DRB1*0701 (DR7) (Homo sapiens, UniProt P01903+P01911, A100R/A102G/A103Q/D57E/D86V/E43K/F76Y/K127E/L162R/M171V/P40G/Q125H/Q99D/R33Q/R42Y/R54Q/S133A/S66F/T210M/V115G/Y107V/Y59L/Y89S); details: DRB1 *0701
[4] = biological target: HLA-DR DRB1*0802 (DR8) (Homo sapiens, UniProt P01903+P01911, A100R/A103L/A169T/F76Y/H45Y/I96F/K41T/L162R/M171V/P40S/Q125H/Q178H/Q39Y/Q99D/R218S/R42G/S66Y/V115G/W38E)
[5] = biological target: HLA-DR DRB1*0901 (DR9) (Homo sapiens, UniProt P01903+P01911, A100R/A103E/D57H/D86V/F55Y/F60I/F76Y/I96F/K127E/L162R/M171V/P40D/Q125H/Q99R/R33Q/R42F/S133A/S66N/T210M/V115G/W38K/Y107V/Y59G/Y89S); details: DRB1 *0901
[6] = biological target: HLA-DR DRB1*1101 (DR11) (Homo sapiens, UniProt P01903+P01911, A100R/A169T/A87E/I96F/K41T/L162R/M171V/P40S/Q125H/Q178H/Q39Y/Q99D/R42S/S66Y/T262R/V115G/W38E); details: DRB1 *1101
HLA-DR DRB1*1101 (DR11), sequence (P01903 26-254 limits assumed, other chains not shown): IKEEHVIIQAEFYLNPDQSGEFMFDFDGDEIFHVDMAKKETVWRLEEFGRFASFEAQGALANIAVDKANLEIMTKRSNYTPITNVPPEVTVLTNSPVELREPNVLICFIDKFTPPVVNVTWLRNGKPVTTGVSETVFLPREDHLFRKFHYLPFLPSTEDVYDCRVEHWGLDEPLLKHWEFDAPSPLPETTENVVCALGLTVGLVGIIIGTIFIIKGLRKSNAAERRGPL

[7] = biological target: HLA-DR DRB1*1302 (DR13) (Homo sapiens, UniProt P01903+P01911, A100E/A169T/K41T/L162R/M171V/P40S/Q125H/Q178H/Q39Y/Q99D/R42S/S66N/T262R/V115G/W38E/Y61H); details: DRBI *1302
HLA-DR DRB1*1302 (DR13), sequence (P01903 26-254 limits assumed, other chains not shown): as above

[8] = biological target: HLA-DR DRB1*1501 (DR15) (Homo sapiens, UniProt P01903+P01911); details: DRBI *1501
[9] = biological target: HLA-DR DRB3*0101 (DR52) (Homo sapiens, UniProt P01903+P79483)
[10] = biological target: HLA-DR DRB4*0101 (DR53) (Homo sapiens, UniProt P01903+P13762, G164S); details: DRB4 *0101
[11] = biological target: HLA-DR DRB5*0101 (DR51) (Homo sapiens, UniProt P01903+Q30154); details: DRB5 *0101

| Compound | IC50 [1] [µM] | IC50 [2] [µM] | IC50 [3] [µM] | IC50 [4] [µM] | IC50 [5] [µM] | IC50 [6] [µM] | IC50 [7] [µM] | IC50 [8] [µM] | IC50 [9] [µM] | IC50 [10] [µM] | IC50 [11] [µM] |
| --- | --- | --- | --- | --- | --- | --- | --- | --- | --- | --- | --- |
| GRAVCGGVLVHPQWV | 0.386 | > 26.7 | 3.58 | > 245 | 8.07 | > 50 | 5.46 | 12.9 | > 12.1 | 0.062 | ≥ 100 |
| CC[C@H](C)[C@H](NC(=O)CNC(=O)[C@H](CCCNC(=N)N)NC(=O)[C@H](CCCNC(=N)N)NC(=O)[C@H](Cc1ccc(O)cc1)NC(=O)[C@H](C)NC(=O)[C@H](Cc1ccc(O)cc1)NC(=O)[C@@H](N)CCC(=O)O)C(=O)N[C@@H](C)C(=O)N[C@@H](CCC(=O)O)C(=O)N[C@@H](C)C(=O)N[C@H](C(=O)NCC(=O)N[C@@H](CC(C)C)C(=O)N1CCC[C@H]1C(=O)O)C(C)C | 0.0051 | 0.213 | 0.07 | 0.596 | 0.067 | 2.59 | 5.22 | > 45.5 | 8.77 | 6.32 | 1.2 |
| PEEFLRPRSLQCVSL | 2 | > 26.7 | 5.16 | 2.21 | 5.84 | 10.7 | 11.7 | 3.19 | > 14.4 | 0.117 | 57.5 |
| CC(C)C[C@H](NC(=O)CNC(=O)[C@H](CC(N)=O)NC(=O)[C@@H](N)Cc1ccc(O)cc1)C(=O)N[C@@H](CC(C)C)C(=O)N1CCC[C@H]1C(=O)N1CCC[C@H]1C(=O)N[C@@H](Cc1ccc(O)cc1)C(=O)N[C@@H](C)C(=O)N[C@@H](CO)C(=O)N[C@@H](CS)C(=O)N[C@@H](Cc1c[nH]cn1)C(=O)N[C@@H](CC(C)C)C(=O)N[C@H](C(=O)N[C@@H](CCC(=O)O)C(=O)O)[C@@H](C)O | 0.042 | 6.19 | > 83.3 | 14 | 8.02 | 5.3 | 11.7 | 0.252 | > 15 | > 10.9 | ≥ 100 |
| CC[C@H](C)[C@H](NC(=O)[C@@H]1CCCN1C(=O)[C@H](CCC(N)=O)NC(=O)[C@@H](N)Cc1c[nH]c2ccccc12)C(=O)N1CCC[C@H]1C(=O)N[C@H](C(=O)N[C@@H](Cc1c[nH]cn1)C(=O)N[C@H](C(=O)N[C@H](C(=O)N1CCC[C@H]1C(=O)N[C@@H](CC(C)C)C(=O)N[C@@H](CO)C(=O)N[C@@H](CCC(=O)O)C(=O)N[C@@H](CC(=O)O)C(=O)N[C@@H](CCC(N)=O)C(=O)O)C(C)C)[C@@H](C)O)C(C)C | 6.39 | > 26.7 | 0.159 | > 81.7 | 17.5 | > 66.7 | 2.69 | > 45.5 | > 8.83 | 1.23 | > 100 |
| NGVLQGITSWGPEPC | 1.09 | 8.43 | 2.29 | 52.2 | 50.1 | 32.4 | > 17.5 | 0.835 | > 14.4 | 5.76 | > 100 |
| CC[C@H](C)[C@H](NC(=O)[C@H](CO)NC(=O)[C@H](CC(C)C)NC(=O)[C@@H](NC(=O)[C@H](CC(C)C)NC(=O)[C@@H](N)CC(=O)O)C(C)C)C(=O)N[C@@H](C)C(=O)N[C@@H](CC(C)C)C(=O)N[C@@H](CO)C(=O)N[C@H](C(=O)NCC(=O)N[C@@H](CS)C(=O)N[C@H](C(=O)NCC(=O)N[C@@H](C)C(=O)O)[C@@H](C)O)C(C)C | 1.2 | 13 | 4.03 | > 245 | 2.2 | > 200 | 0.098 | 18.2 | > 14.9 | 0.459 | > 100 |
| KSRLQGGVLVNEILN | 0.362 | > 26.7 | 2.84 | > 81.7 | 5.52 | > 66.7 | 0.318 | > 30.3 | > 15 | 0.713 | > 100 |
| CC[C@H](C)[C@H](NC(=O)CNC(=O)[C@H](CCC(N)=O)NC(=O)[C@H](CC(C)C)NC(=O)[C@@H](NC(=O)CNC(=O)[C@H](CC(N)=O)NC(=O)[C@H](CS)NC(=O)[C@@H](NC(=O)[C@H](CC(C)C)NC(=O)[C@@H]1CCCN1C(=O)CNC(=O)CN)C(C)C)C(C)C)C(=O)N[C@H](C(=O)N[C@@H](CO)C(=O)O)[C@@H](C)O | 3.35 | 0.068 | > 35.7 | 9.33 | 16.3 | 1.83 | 0.036 | 30.3 | > 6.57 | 0.815 | 13.4 |
| CSCC[C@H](NC(=O)[C@@H](NC(=O)[C@H](CCCCN)NC(=O)[C@@H](NC(=O)[C@H](C)NC(=O)[C@H](CC(=O)O)NC(=O)[C@@H](N)[C@@H](C)O)C(C)C)C(C)C)C(=O)N[C@@H](CC(=O)O)C(=O)N[C@@H](CC(C)C)C(=O)N1CCC[C@H]1C(=O)N[C@H](C(=O)N[C@@H](CCC(N)=O)C(=O)N[C@@H](CCC(=O)O)C(=O)N1CCC[C@H]1C(=O)N[C@@H](C)C(=O)O)[C@@H](C)O | > 50 | > 80 | > 41.7 | 20.9 | > 107 | > 50 | > 35 | > 45.5 | > 13.5 | 0.747 | > 200 |
| PHPLYNMSLLKHQSL | 19.1 | 0.819 | 20.7 | 3.31 | 1.59 | 6.46 | 3.31 | 3.87 | > 14.9 | 0.049 | 1.9 |
| CC[C@H](C)[C@H](NC(=O)[C@H](CS)NC(=O)[C@H](Cc1c[nH]cn1)NC(=O)[C@H](C)NC(=O)[C@H](C)NC(=O)[C@@H](NC(=O)[C@H](CC(C)C)NC(=O)[C@@H](NC(=O)[C@H](Cc1c[nH]c2ccccc12)NC(=O)[C@@H](N)CCC(N)=O)C(C)C)[C@@H](C)O)C(=O)N[C@@H](CCCNC(=N)N)C(=O)N[C@@H](CC(N)=O)C(=O)N[C@@H](CCCCN)C(=O)N[C@@H](CO)C(=O)N[C@H](C(=O)O)C(C)C | 0.05 | 19.4 | 0.214 | 2.6 | 0.967 | 2.17 | 2.06 | 13.6 | 7.34 | 3.8 | 0.035 |
| SLSLGFLFLLFFWLD | 11.4 | 4.71 | 22.7 | > 123 | 24.6 | 100 | 0.639 | 11.4 | 3.71 | > 11 | 66.7 |
| CC[C@H](C)[C@H](NC(=O)[C@H](CO)NC(=O)[C@H](CO)NC(=O)[C@H](CC(=O)O)NC(=O)[C@H](C)NC(=O)[C@H](CC(N)=O)NC(=O)[C@@H](NC(=O)[C@H](Cc1ccc(O)cc1)NC(=O)[C@H](C)NC(=O)[C@@H](NC(=O)CNC(=O)[C@H](CCCNC(=N)N)NC(=O)[C@@H](N)CCC(=O)O)C(C)C)[C@@H](C)CC)C(=O)N[C@@H](CCC(=O)O)C(=O)NCC(=O)O | 2.44 | 6.76 | 34 | > 163 | 25.5 | > 50 | 3.69 | 30.3 | 6.85 | 0.087 | ≥ 200 |
